According to PMC5623046, “A Simple PB/LIE Free Energy Function Accurately Predicts the Peptide Binding Specificity of the Tiam1 PDZ Domain” (Frontiers in Molecular Biosciences, 2017):
“And” between values parts separate entries of the source, which are not always exact repeats. Equal entries are not always repeated. Where two headings read alike, the source gives them in different places. Marks after values point to notes of the source that are not given here. Values belong to the substance of their own block, whether it stands above or below them.

How the values were obtained:
[1] = biological target: T1, wildtype Tiam1 PDZ domain (WT) (Homo sapiens, UniProt Q13009); conditions: relative to WT:Sdc1; ref Shepherd et al., [2011]; Liu et al., [2013]; cited from earlier work
T1 construct: The Tiam1 PDZ domain was purified by nickel-chelate (GE-Healthcare) and size-exclusion chromatography; His6 (N, cleaved yes); made in house; host or cells: Escherichia coli BL21(DE3)
T1 sequence (Q13009 841-930 limits assumed): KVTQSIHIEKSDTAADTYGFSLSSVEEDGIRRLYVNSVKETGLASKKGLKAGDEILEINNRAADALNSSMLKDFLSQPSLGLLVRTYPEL
Excerpt: Table 1 Tiam1-PDZ:peptide complexes and free energies used for model fitting. | column: Exp.^a || Table 2 Tiam1-PDZ:peptide complexes and free energies not used for model fitting. | column: Exp.^a || Table 4 Alchemical free energy simulation (FEP) results. | column: Exp. || (+ 3 further places)

Tiam1 PDZ domain K912E = conditions: relative to WT:Sdc1; ref Shepherd et al., [2011]; Liu et al., [2013]; cited from earlier work
Excerpt: (§1) Table 1 Tiam1-PDZ:peptide complexes and free energies used for model fitting. | column: Exp.^a

Tiam1 PDZ domain L911M = conditions: relative to WT:Sdc1; ref Shepherd et al., [2011]; Liu et al., [2013]; cited from earlier work
Excerpt: as §1

Tiam1 PDZ domain L915F = conditions: relative to WT:Sdc1; ref Shepherd et al., [2011]; Liu et al., [2013]; cited from earlier work
Excerpt: as §1

[2] = system: Tiam1 PDZ domain L911M,K912E; conditions: relative to WT:Sdc1; ref Shepherd et al., [2011]; Liu et al., [2013]; cited from earlier work
Excerpt: (§2) Table 1 Tiam1-PDZ:peptide complexes and free energies used for model fitting. | column: Exp.^a || Table 2 Tiam1-PDZ:peptide complexes and free energies not used for model fitting. | column: Exp.^a

[3] = system: Tiam1 PDZ domain L915F,L920V; conditions: relative to WT:Sdc1; ref Shepherd et al., [2011]; Liu et al., [2013]; cited from earlier work
Excerpt: as §2

[4] = system: Tiam1 PDZ domain quadruple mutant (QM); conditions: relative to WT:Sdc1; ref Shepherd et al., [2011]; Liu et al., [2013]; cited from earlier work
Excerpt: as §2

Tiam1 PDZ domain L920V = conditions: ref Shepherd et al., [2011], Liu et al., [2013], cited from earlier work; for Exp. relative binding free energy ΔΔG: relative to WT:Sdc1
Excerpt: Table 1 Tiam1-PDZ:peptide complexes and free energies used for model fitting. | column: Exp.^a || Tables 1, 2 list the 44 peptide and protein variants for which experimental binding data are available along with the corresponding binding free energy differences (ΔΔG) relative to the wildtype:Sdc1 complex (WT:Sdc1), taken as a reference. Notice that positions within each peptide ligand are numbered backwards from the C-terminus (“position 0”). For two complexes, experimental measurements were not available and ΔΔG was obtained in this work using rigorous alchemical free energy simulations (see below). Seventeen of the complexes involve Tiam1 mutations at one or more of four positions. These ...

[5] = biological target: T1, wildtype Tiam1 PDZ domain (WT); experiment: Fluorescence anisotropy binding of dansylated peptides; conditions: for Exp. relative binding free energy ΔΔG: relative to WT:Sdc1, this work, dansylated peptide 5–10 μM, 20 mM sodium phosphate, 50 mM NaCl, pH 6.8, 25°C, triplicate
Experimental: Typically, E. coli cells were grown at 37°C in Luria-Bertani (LB) medium supplemented with ampicillin (100 μg/mL) under vigorous agitation until an A600 of 0.6–0.8 was reached. Cultures were subsequently cooled to 18°C and protein expression was induced by the addition of isopropyl 1-thio-β-d-galactopyranoside (IPTG) to 1 mM final concentration. Induced cells were incubated for an additional 16–18 h at 18°C and harvested by centrifugation. The Tiam1 PDZ domain was purified by nickel-chelate (GE-Healthcare) and size-exclusion chromatography (Shepherd et al., [2010]). […] Undigested protein, cleaved His6 tag and His-tagged rTEV were separated from Tiam1 PDZ domain by nickel-chelate chromatography. The final yield was 20 mg of PDZ protein (>98% pure as judged by SDS-PAGE) from 1 L of culture. Samples were used immediately or lyophilized and stored at […].
All peptides were chemically synthesized by GenScript Inc. (Piscataway, NJ) and judged to be >95% pure based on analytical HPLC and mass spectrometry. Peptides were dansylated at their N-terminus. Peptide concentrations were determined by absorbance measurements (A280) using their predicted extinction coefficient. The peptides used in this study were Syndecan1 (Sdc1) point mutants and double mutants: Sdc1 (residues 303–310 of the full Syndecan protein: TKQEEFYACOOH), Sdc1-A0M (residues 303–310: TKQEEFYMCOOH), Sdc1-F2R (residues 303–310: TKQEERYACOOH), Sdc1-F2R/A0M (residues 303–310: TKQEERYMCOOH), Sdc1-F2A (residues 303–310: TKQEEAYACOOH), Sdc1-F2N (residues 303-310: TKQEENYACOOH), Sdc1-F2I (residues 303–310: TKQEEIYACOOH), Sdc1-E4L (residues 303–310: TKQLEFYACOOH), Sdc1-E3D/Y1T (residues 303–310: TKQEDFTACOOH), and Sdc1-E3T/Y1K (residues 303–310: TKQETFKACOOH). Notice that here and below, for the Sdc1 and other peptides, we number residue positions counting backwards from the peptide C-terminus (position 0). Thus, Sdc1-F2R is mutated at the third position from the C-terminus, which is usually called “position −2” (Shepherd and Fuentes, [2011]). We drop the negative sign to keep the notation simple.
Fluorescence anisotropy was used to monitor the binding of Tiam1 PDZ domain proteins to dansylated peptides. Anisotropy measurements were carried out on a Fluorolog3 (Jobin Yvon, Horiba, NJ) spectrofluorimeter (γex = 340 and γem = 550 nm). All data collection, fitting, and thermodynamic analyses were performed as previously described (Shepherd et al., [2011]). Binding experiments were conducted in 1.3 mL of binding buffer (20 mM sodium phosphate, 50 mM NaCl and pH 6.8) containing peptide at a concentration of 5–10 μM. Measurements were made in a 2 mL quartz cuvette that was stirred and maintained at constant 25°C temperature. The slit widths for the control of excitation and emission intensity were adjusted to the signal-to-noise ratio and maximum intensity and set in the range of 6–9 nm. A ratio of 1:100 and 1:10 dilutions of the stock PDZ protein solution (~1 mM) were prepared in binding buffer. For each experiment, 20–30 individual titration steps were performed until the sample had little or no change in anisotropy. The change in fluorescence anisotropy was plotted against protein concentration and fit to a standard hyperbolic ligand-binding curve. Each titration was carried out in triplicate.

[6] = biological target: Syndecan-1 (Sdc1) peptide (Homo sapiens) (UniProt P18827); conditions: cited from earlier work
Sequence of Syndecan-1 (Sdc1) peptide (Homo sapiens) (P18827 23-310): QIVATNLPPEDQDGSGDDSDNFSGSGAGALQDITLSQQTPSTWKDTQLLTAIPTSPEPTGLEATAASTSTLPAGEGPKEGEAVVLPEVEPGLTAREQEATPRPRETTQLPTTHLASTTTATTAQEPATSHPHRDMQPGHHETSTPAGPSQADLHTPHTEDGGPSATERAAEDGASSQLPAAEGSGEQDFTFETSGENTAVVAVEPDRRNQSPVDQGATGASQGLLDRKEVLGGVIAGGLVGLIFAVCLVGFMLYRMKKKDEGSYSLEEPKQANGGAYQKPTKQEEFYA

Sequence of Tiam1 PDZ (Q13009 842-911): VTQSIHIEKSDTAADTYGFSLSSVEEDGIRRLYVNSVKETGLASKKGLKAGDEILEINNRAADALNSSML

Substance: ENQKEYFF [Caspr4, peptide corresponding to the C-terminus of Caspr4]
- Exp. relative binding free energy ΔΔG [1]: -0.21 kcal/mol
- Exp. relative binding free energy ΔΔG (Tiam1 PDZ domain K912E): 0.46 kcal/mol
- Exp. relative binding free energy ΔΔG (Tiam1 PDZ domain L911M): -0.39 kcal/mol
- Exp. relative binding free energy ΔΔG (Tiam1 PDZ domain L915F): 0.48 kcal/mol
- Exp. relative binding free energy ΔΔG [2]: 0.04 kcal/mol
- Exp. relative binding free energy ΔΔG [3]: 0.62 kcal/mol
- Exp. relative binding free energy ΔΔG [4]: -0.23 kcal/mol
- Exp. relative binding free energy ΔΔG (Tiam1 PDZ domain L920V): -0.54 kcal/mol
- Kd (Tiam1 PDZ domain L920V; strongest binding in the dataset): 10.8 µM

Substance: NKDKEYYV [Neur, peptide corresponding to the C-terminus of Neurexin]
- Exp. relative binding free energy ΔΔG [2]: 1.25 kcal/mol
- Exp. relative binding free energy ΔΔG [3]: 1.08 kcal/mol
- Exp. relative binding free energy ΔΔG [4]: 0.32 kcal/mol

Substance: SSRKEYYA [Consensus]
- Exp. relative binding free energy ΔΔG [1]: 0.84 kcal/mol

- Exp. relative binding free energy ΔΔG [5]: 0.87^e kcal/mol
Substance: TKQEDFTACOOH [Sdc1.E3D, Y1T, Sdc1 double mutant]

- Exp. relative binding free energy ΔΔG [5]: ≥ 1.32 kcal/mol
Substance: TKQEEAYACOOH [Sdc1-F2A, Sdc1 point mutant, Ala at position 2]

Substance: TKQEEFYACOOH [Sdc1, C-terminal peptide of Syndecan1, residues 303–310]
- Exp. relative binding free energy ΔΔG [1]: 0.00 kcal/mol
- Exp. relative binding free energy ΔΔG (Tiam1 PDZ domain K912E): 0.97 kcal/mol
- Exp. relative binding free energy ΔΔG (Tiam1 PDZ domain L911M): 0.15 kcal/mol
- Exp. relative binding free energy ΔΔG (Tiam1 PDZ domain L915F): 0.65 kcal/mol
- Exp. relative binding free energy ΔΔG [2]: 1.21 kcal/mol
- Exp. relative binding free energy ΔΔG [3]: 1.32 kcal/mol
- Exp. relative binding free energy ΔΔG [4]: 0.89 kcal/mol
- Exp. relative binding free energy ΔΔG (Tiam1 PDZ domain L920V): 0.31 kcal/mol

- Exp. relative binding free energy ΔΔG [5]: 1.56^d kcal/mol and 1.56 kcal/mol
Substance: TKQEEFYMCOOH [Sdc1.A0M, Sdc1 point mutant, Met at position 0]

- Exp. relative binding free energy ΔΔG [5]: 0.80^e kcal/mol and 0.80 kcal/mol
Substance: TKQEEIYACOOH [Sdc1.F2I, Sdc1 point mutant, Ile at position 2]

- Exp. relative binding free energy ΔΔG [5]: ≥ 1.32 kcal/mol
Substance: TKQEENYACOOH [Sdc1-F2N, Sdc1 point mutant, Asn at position 2]

- Exp. relative binding free energy ΔΔG [5]: ≥ 1.32 kcal/mol
- affinity for WT (in words) ([5]; this work): does not have a detectable affinity
Substance: TKQEERYACOOH [Sdc1-F2R, Sdc1 point mutant, Arg at position 2]

- Exp. relative binding free energy ΔΔG [5]: 1.33^e kcal/mol
- Exp. relative binding free energy ΔΔG ([5]; listed as Sdc1-E3T,Y1K): 1.33 kcal/mol
Substance: TKQETFKACOOH [Sdc1.E3T, Y1K, Sdc1 double mutant]

- Exp. relative binding free energy ΔΔG [5]: 0.56^e kcal/mol
Substance: TKQLEFYACOOH [Sdc1.E4L, Sdc1 point mutant, Leu at position 4]

Substance: Tiam1 PDZ (from UniProt Q13009)
- Kd [6]: 26.9 µM

Substance: YAAEKYWA [peptide from a combinatorial library]
- Exp. relative binding free energy ΔΔG [1]: 0.72 kcal/mol

Substance: YAAGRKHF
- Exp. relative binding free energy ΔΔG [1]: ≥ 1.32^g kcal/mol

Substance: YAAKAFRF [peptide from a combinatorial library]
- Exp. relative binding free energy ΔΔG [1]: 1.17 kcal/mol

Substance: YAAKRTYV
- Exp. relative binding free energy ΔΔG [1]: ≥ 1.32^g kcal/mol

Substance: YAALIHKF
- Exp. relative binding free energy ΔΔG [1]: ≥ 1.32^g kcal/mol

Substance: YAAQKHFH
- Exp. relative binding free energy ΔΔG [1]: ≥ 1.32^g kcal/mol

Substance: YAARKFAK
- Exp. relative binding free energy ΔΔG [1]: ≥ 1.32^g kcal/mol

Substance: YAAYRYRA
- Exp. relative binding free energy ΔΔG [1]: ≥ 1.32^g kcal/mol
